The target of one assay is T1, PTGR2 (Homo sapiens, UniProt Q8N8N7).
T1 construct: host or cells: HEK293T
As to the kind of experiment: PTGR2 enzymatic (15-keto-PGE2 substrate) assay after live-cell treatment. The class given is biochemical. Particulars: cells treated 2 h 37° C., up to 25 μM; 15-keto-PGE2 20 μM. Here is the method:
PTGR2 enzymatic assay was performed based on a previously described chromogenic method^[17,81]. HEK293T cells expressing recombinant PTGR2 were treated with DMSO vehicle or indicated concentrations of SuTEx ligand for 2 hrs. The cells were washed with cold PBS twice and harvested. The proteomes were lysed in PBS by sonication and fractionated (100,000×g, 45 min, 4° C.). Soluble proteome (0.5 mg) was incubated for 30 min at 37° C. with 1 mM of EDTA, DTT, NADPH and 20 μM 15-Keto PGE2 in 0.1 M Tris-HCl (PH 7.5) (final volume of 230 μL) and the substrate consumed was determined by adding 20 μL 20 N NaOH, mixing and measuring absorbance at 500 nm after 5 min.
The effect of liganding tyrosine sites on the biochemical function of PTGR2 was investigated. PTGR2 has a role in metabolism and there is an ability to measure its biochemical activity using an established 15-keto-PGE2 substrate assay^[17-18]. In brief, recombinant PTGR2 expressing HEK293T cells were treated with DMSO, HHS-0701, or HHS-0101 (negative control) for 2 hours at 37° C. Cells were lysed and the soluble fractions incubated in an assay buffer containing 15-keto-PGE2 (20 μM) for 30 minutes at 37° C. After quenching reactions in NaOH, the amount of substrate remaining was quantified by absorbance of a red chromophore that forms in an alkaline solution of 15-keto-PGE2^[17-18]. […]

The target of assay [1] is T2, Q8N8N7 (prostaglandin reductase 2, PTGR2) (Homo sapiens, UniProt Q8N8N7).
T2 construct: endogenous in cells; host or cells: DM93 cells (SILAC), live-cell treatment
As to the kind of experiment: SILAC LC-MS ABPP. The class given is cell-based. Here is the method: (§1) Cells were grown to 90-95% confluence before being washed once with warm, sterile DPBS (1×, 5 mL), followed by addition of 10 mL of serum-free media (supplemented with 1% L-glutamine) containing either DMSO or SuTEx fragment (in DMSO) was added. Light cells were treated with DMSO vehicle while the heavy cells were treated with DMSO or SuTEx fragment (in DMSO) and incubated for 2 hrs. After 2 hrs, the cells were treated with SuTEx alkyne probe (HHS475, 10 μL of 1000× DMSO stock) and incubated for an additional 2 hrs. The media was aspirated and cells washed with cold PBS (5 mL) and harvested. Cells were spun at 500×g for 5 min at 4° C. followed by removal of supernatant. Pellets were resuspended in 1 mL of cold DPBS and spun at 1,400×g for 3 min at 4° C. followed by removal of supernatant. The cells were lysed in PBS by sonication and fractionated (100,000×g, 45 min, 4° C.).The light and heavy soluble fractions were diluted to 2.3 mg/mL in PBS and 432 μL were used for analysis (1 mg total protein). The probe-modified proteomes were conjugated to desthiobiotin-PEG3-azide (10 μl of 10 mM stock in DMSO; 200 μM final concentration) using TCEP (10 μl of fresh 50 mM stock in water, 1 mM final concentration), TBTA ligand (33 μl of a 1.7 mM 4:1 t-butanol/DMSO stock, 100 μM final concentration) and CuSO4 (10 μl of 50 mM stock, 1 mM final concentration). Samples were vortexed to mix and incubated for 1 hr at room temperature. The heavy and light proteomes were mixed 1:1 and the subsequent steps, including LC-MS/MS data analysis, were performed as previously described^[8a].
(§2) Coupling cell-based screens with chemical proteomics can facilitate the identification of target protein and binding sites that engage and are irreversibly modified by covalent ligands^[12]. In these assays, covalent ligands block SuTEx activity-based probe (ABP) labeling at protein sites, and the competition of probe labeling can be used to quantify potency and selectivity across the proteome^[10a]. To facilitate quantitative chemical proteomics, DM93 melanoma cells were cultured using stable isotopic labeling by amino acids in cell culture (SILAC)^[13]. Cells cultured in “light” media were treated with dimethyl sulfoxide (DMSO) vehicle while cells cultured in “heavy” media were treated with SuTEx ligand (25 μM, 2 hours, 37° C.). Next, cells were treated with HHS-475 probe (100 μM, 2 hours, 37° C.) followed by lysis and processing of proteomes for analysis. Probe-modified proteins from the soluble fraction were conjugated to a desthiobiotin-azide tag by copper-catalyzed azide-alkyne cycloaddition (CuAAC)^[14] followed by mixing of the light and heavy proteomes. The combined proteomes were digested with trypsin protease to produce probe-modified peptides, followed by enrichment and purification by avidin affinity chromatography. Probe-modified peptides were resolved, identified, and quantified by high-resolution liquid chromatography-tandem mass spectrometry (LC-MS/MS). Resultant data were analyzed as previously described^[8a, 10a]. Table 2, below, lists sites of modification targeted by sulfonyl-triazole compounds HHS-0101, HHS-0201, HHS-0301, HHS-0401, and HHS-0701. The format of the table is as follows: protein Uniprot accession number (see uniprot.org); tyrosine site (amino acid position) modified; treatment (sulfonyl-triazole compound identification number, followed by Y (where if multiple compounds modify the same site, the compounds are separated by vertical lines).
Confirmatory studies were also performed on prostaglandin reductase 2 (PTGR2) because of its role in the reduction of the bioactive lipid, 15-keto-PGE2^[17]. […] The chemical proteomic studies also identified additional tyrosine sites (e.g. Y265) competed by HHS-0701 albeit to a lesser degree (SR<5) compared with Y100. […]

Another assay concerns P22626. As to the kind of experiment: SILAC LC-MS ABPP. The assay is classed as cell-based, human. Particulars: 25 μM 2 h, live DM93 cells. The protocol: as §1, §2
Assay [2] addresses T3, P16930 (fumarylacetoacetase, FAH) (Homo sapiens, UniProt P16930).
T3 construct: endogenous in cells; host or cells: DM93 (SILAC)
As to the kind of experiment: SILAC LC-MS ABPP. The assay is classed as cell-based. Here is the method: Cells were grown to 90-95% confluence before being washed once with warm, sterile DPBS (1×, 5 mL), followed by addition of 10 mL of serum-free media (supplemented with 1% L-glutamine) containing either DMSO or SuTEx fragment (in DMSO) was added. Light cells were treated with DMSO vehicle while the heavy cells were treated with DMSO or SuTEx fragment (in DMSO) and incubated for 2 hrs. After 2 hrs, the cells were treated with SuTEx alkyne probe (HHS475, 10 μL of 1000× DMSO stock) and incubated for an additional 2 hrs. The media was aspirated and cells washed with cold PBS (5 mL) and harvested. Cells were spun at 500×g for 5 min at 4° C. followed by removal of supernatant. […]
Coupling cell-based screens with chemical proteomics can facilitate the identification of target protein and binding sites that engage and are irreversibly modified by covalent ligands^[12]. In these assays, covalent ligands block SuTEx activity-based probe (ABP) labeling at protein sites, and the competition of probe labeling can be used to quantify potency and selectivity across the proteome^[10a]. To facilitate quantitative chemical proteomics, DM93 melanoma cells were cultured using stable isotopic labeling by amino acids in cell culture (SILAC)^[13]. […] Probe-modified peptides were resolved, identified, and quantified by high-resolution liquid chromatography-tandem mass spectrometry (LC-MS/MS). […]

Some results are limits rather than exact numbers.

T2 sequence (Q8N8N7 whole entry, one chain of several): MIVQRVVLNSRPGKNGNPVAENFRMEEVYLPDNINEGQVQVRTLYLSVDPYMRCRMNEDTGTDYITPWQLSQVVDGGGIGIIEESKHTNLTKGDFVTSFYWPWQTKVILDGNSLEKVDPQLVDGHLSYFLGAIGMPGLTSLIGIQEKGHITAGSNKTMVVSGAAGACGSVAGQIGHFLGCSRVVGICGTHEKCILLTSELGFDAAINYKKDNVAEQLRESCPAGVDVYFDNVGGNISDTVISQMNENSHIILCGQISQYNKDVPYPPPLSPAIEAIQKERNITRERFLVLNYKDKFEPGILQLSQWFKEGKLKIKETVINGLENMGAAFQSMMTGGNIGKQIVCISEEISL
T3 sequence (P16930 whole entry): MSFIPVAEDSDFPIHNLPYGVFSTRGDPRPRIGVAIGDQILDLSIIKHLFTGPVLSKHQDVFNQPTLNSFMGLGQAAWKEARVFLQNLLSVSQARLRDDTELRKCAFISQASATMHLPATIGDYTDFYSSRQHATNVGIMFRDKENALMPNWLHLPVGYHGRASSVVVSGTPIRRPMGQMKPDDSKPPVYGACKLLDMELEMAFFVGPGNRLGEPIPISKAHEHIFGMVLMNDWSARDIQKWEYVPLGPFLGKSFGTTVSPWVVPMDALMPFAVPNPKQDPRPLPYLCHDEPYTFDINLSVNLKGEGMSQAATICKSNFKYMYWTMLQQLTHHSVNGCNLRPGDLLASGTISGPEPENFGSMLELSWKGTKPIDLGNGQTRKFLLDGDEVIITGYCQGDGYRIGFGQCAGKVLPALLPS
T1 sequence (Q8N8N7 whole entry): as the sequence (Q8N8N7 whole entry, one chain of several) above

`O=C(c1ccc(S(=O)(=O)n2cncn2)cc1)N1CCC(c2ccccc2)CC1` [HHS-0701, (4-((1H-1,2,4-triazol-1-yl)sulfonyl)phenyl)(4-phenylpiperidin-1-yl)methanone]: the “inhibition of PTGR2 biochemical activity” value on PTGR2 is listed as “concentration-dependent inhibition of PTGR2 activity”. Moreover, in assay [1] (25 μM 2 h, live DM93 cells), the “SILAC ratio (SR), PTGR2 Y100” value amounted to 11; the “SILAC ratio (SR), PTGR2 Y265” value is less than 5; the “liganded tyrosine site 100” value was “HHS0701.Y (tyrosine sites that showed >80% reductions (SR >5) in probe labeling in cells treated with compounds (liganded sites))”. For the same compound, the “PTGR2 Y100 liganded” value in assay [1] (ligand-treated DM93 cells) was approximately 90%.

On to `O=C(NCC1CC1)c1ccc(S(=O)(=O)n2cncn2)cc1` [HHS-0201, 4-((1H-1,2,4-triazol-1-yl)sulfonyl)-N-(cyclopropylmethyl)benzamide], for which, in the assay with P22626, the “liganded tyrosine site 244” value was “HHS0201.Y (tyrosine sites that showed >80% reductions (SR >5) in probe labeling in cells treated with compounds (liganded sites))”, the “liganded tyrosine site 247” value is recorded as “HHS0201.Y (tyrosine sites that showed >80% reductions (SR >5) in probe labeling in cells treated with compounds (liganded sites))” and the “liganded tyrosine site 283” value is recorded as “HHS0201.Y (tyrosine sites that showed >80% reductions (SR >5) in probe labeling in cells treated with compounds (liganded sites))”.

For `O=C(NCc1ccccc1)c1ccc(S(=O)(=O)n2cncn2)cc1` [HHS-0401, 4-((1H-1,2,4-triazol-1-yl)sulfonyl)-N-benzylbenzamide], in assay [2] (live DM93 cells treated with ligand), the “FAH Y244 site liganded” value was more than 90%. The “liganded tyrosine site 265” value in assay [1] (25 μM 2 h, live DM93 cells) was “HHS0401.Y (tyrosine sites that showed >80% reductions (SR >5) in probe labeling in cells treated with compounds (liganded sites))”.

With `O=C(NC1CC1)c1ccc(S(=O)(=O)n2cncn2)cc1` [HHS-0101, 4-((1H-1,2,4-triazol-1-yl)sulfonyl)-N-cyclopropylbenzamide], in the assay on P22626, the “liganded tyrosine site 262” value is “HHS0101.Y (tyrosine sites that showed >80% reductions (SR >5) in probe labeling in cells treated with compounds (liganded sites))”. Besides, the “liganded tyrosine site 244” value in assay [2] (25 μM 2 h, live DM93 cells) is given as “HHS0101.Y|HHS0201.Y|HHS0301.Y|HHS0401.Y|HHS0701.Y (tyrosine sites that showed >80% reductions (SR >5) in probe labeling in cells treated with compounds (liganded sites))”. The “inhibition of PTGR2 biochemical activity” value against PTGR2 was “No inhibitory activity”. In addition, the “SILAC ratio (SR), PTGR2 Y100” value in assay [1] (25 μM 2 h, live DM93 cells) amounted to 1.4.

Source of the values: patent publication US20240210412A1, “SULFONYL-TRIAZOLE COMPOUNDS USEFUL AS LIGANDS AND INHIBITORS OF PROSTAGLANDIN REDUCTASE 2” (University of Virginia Patent Foundation, priority 2021, published 2024).
